Source: ChEMBL document CHEMBL1126346, “C-linked pyrazole biaryl tetrazoles as antagonists of angiotensin II” (1992)
Calls of active or inactive are those of the source. The calls are words filed in the database; no cut-off is given here.

Experiments:
[1] = target: T1, Type-1 angiotensin II receptor (Oryctolagus cuniculus) (UniProt P34976); assay: In vitro inhibition of ATII induced contractions of the isolated rabbit aorta.
T1 sequence (whole entry): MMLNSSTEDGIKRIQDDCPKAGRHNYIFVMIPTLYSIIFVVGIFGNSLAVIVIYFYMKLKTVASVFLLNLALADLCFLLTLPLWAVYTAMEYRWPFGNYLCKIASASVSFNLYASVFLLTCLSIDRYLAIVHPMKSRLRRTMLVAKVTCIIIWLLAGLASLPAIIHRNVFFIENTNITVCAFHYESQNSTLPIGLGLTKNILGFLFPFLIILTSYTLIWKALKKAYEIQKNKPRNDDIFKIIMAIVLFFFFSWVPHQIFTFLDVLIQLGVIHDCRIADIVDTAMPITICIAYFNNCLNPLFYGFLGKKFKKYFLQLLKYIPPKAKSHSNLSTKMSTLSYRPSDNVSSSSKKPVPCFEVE

Rattus norvegicus [2] = species: Rattus norvegicus; assay: Effect on diastolic blood pressure of hypertensive rats; Inactive; type: functional, organism-based; settings: Artery
Rattus norvegicus [3] = assay: Effect on diastolic blood pressure of hypertensive rats 24 hours following 1 mg/kg p.o. administration.; type: functional, Artery; settings: route oral
Rattus norvegicus [4] = assay: Effect on diastolic blood pressure of hypertensive rats 3 hours following 1 mg/kg p.o. administration.; type: functional, Artery; settings: route oral
Rattus norvegicus [5] = assay: Effect on diastolic blood pressure of hypertensive rats 1 hour following 1 mg/kg p.o. administration.; type: functional, Artery; settings: route oral
Rattus norvegicus [6] = assay: Effect on diastolic blood pressure of hypertensive rats immediately following 1 mg/kg p.o. administration.; type: functional, Artery; settings: route oral
Rattus norvegicus [7] = assay: Effect on diastolic blood pressure of hypertensive rats 5 hours following 1 mg/kg p.o. administration.; type: functional, Artery; settings: route oral
Rattus norvegicus [8] = assay: Effect on diastolic blood pressure of hypertensive rats 48 hours following 1 mg/kg p.o. administration.; type: functional, Artery; settings: route oral
Rattus norvegicus [9] = assay: Effect on diastolic blood pressure of hypertensive rats 7 hours following 1 mg/kg p.o. administration.; type: functional, Artery; settings: route oral

| pKB [1] | SMILES | also measured |
| --- | --- | --- |
| 8 | CCCCc1c(Cc2ccc(-c3ccccc3-c3nn[nH]n3)cc2)c(C(=O)O)nn1C(C)C |  |
| 8 | CCCCc1nn(CC)c(CO)c1Cc1ccc(-c2ccccc2-c2nn[nH]n2)cc1 |  |
| 10.6 | CCCCc1nn(CC(C)(C)C)c(C(=O)O)c1Cc1ccc(-c2ccccc2-c2nn[nH]n2)cc1 |  |
| 10 | CCCCc1nn(C(C)C)c(C(=O)O)c1Cc1ccc(-c2ccccc2-c2nn[nH]n2)cc1 |  |
| 10.9 | CCCCc1nn(C2CCC2)c(C(=O)O)c1Cc1ccc(-c2ccccc2-c2nn[nH]n2)cc1 | Blood pressure (Rattus norvegicus [2]): inactive |
| 8.8 | CCCCc1n[nH]c(C(=O)O)c1Cc1ccc(-c2ccccc2-c2nn[nH]n2)cc1 |  |
| 9.8 | CCCCc1nn(CC(F)(F)F)c(C(=O)O)c1Cc1ccc(-c2ccccc2-c2nn[nH]n2)cc1 |  |
| 7.7 | CCCCc1c(Cc2ccc(-c3ccccc3-c3nn[nH]n3)cc2)c(C(=O)O)nn1CC(F)(F)F |  |
| 10 | CCCCc1nn(CCCC)c(C(=O)O)c1Cc1ccc(-c2ccccc2-c2nn[nH]n2)cc1 |  |
| 10.5 | CCCCc1nn(CCC)c(C(=O)O)c1Cc1ccc(-c2ccccc2-c2nn[nH]n2)cc1 |  |
| 7.5 | CCCCc1nn(CC)c(C(=O)NC)c1Cc1ccc(-c2ccccc2-c2nn[nH]n2)cc1 |  |
| 8 | CCCCc1nn(CC)c(C(=O)OCC)c1Cc1ccc(-c2ccccc2-c2nn[nH]n2)cc1 |  |
| 9.8 | CCCCc1nn(CC)c(C(=O)O)c1Cc1ccc(-c2ccccc2-c2nn[nH]n2)cc1 |  |
| 9.8 | CCCCc1nn(C)c(C(=O)O)c1Cc1ccc(-c2ccccc2-c2nn[nH]n2)cc1 |  |
| 8 | CCCCc1c(Cc2ccc(-c3ccccc3-c3nn[nH]n3)cc2)c(C(=O)O)nn1CCCC |  |
| 8 | CCCCc1nn(CC)c(C(=O)O)c1Cc1ccc(-c2ccccc2NS(=O)(=O)C(F)(F)F)cc1 |  |
| 7 | CCCCc1nn(CC(F)(F)F)c(COC)c1Cc1ccc(-c2ccccc2-c2nn[nH]n2)cc1 |  |
| 11 | CCCCc1nn(CC(C)C)c(C(=O)O)c1Cc1ccc(-c2ccccc2-c2nn[nH]n2)cc1 |  |
| 8 | CCCCc1nn(CC)c(C(=O)O)c1Cc1ccc(-c2ccccc2C(=O)O)cc1 |  |
| 7 | CCCCc1c(Cc2ccc(-c3ccccc3-c3nn[nH]n3)cc2)c(COC)nn1CC(F)(F)F |  |
| 10.5 | CCCCc1nn(CC2CC2)c(C(=O)O)c1Cc1ccc(-c2ccccc2-c2nn[nH]n2)cc1 | Blood pressure (Rattus norvegicus [3]): 97 mmHg; Blood pressure (Rattus norvegicus [4]): 115 mmHg; Blood pressure (Rattus norvegicus [5]): 145 mmHg; Blood pressure (Rattus norvegicus [6]): 150 mmHg; Blood pressure (Rattus norvegicus [7]): 95 mmHg; Blood pressure (Rattus norvegicus [8]): 130 mmHg; Blood pressure (Rattus norvegicus [9]): 95 mmHg |
